Measured values: ChEMBL document CHEMBL1128779, “Synthesis of a fluorescent labeled thromboxane A2 receptor antagonist” (Bioorg Med Chem Lett, 1995)

Molecular target: T1, Thromboxane A2 receptor (Homo sapiens, UniProt P21731)
T1 sequence (P21731 whole entry): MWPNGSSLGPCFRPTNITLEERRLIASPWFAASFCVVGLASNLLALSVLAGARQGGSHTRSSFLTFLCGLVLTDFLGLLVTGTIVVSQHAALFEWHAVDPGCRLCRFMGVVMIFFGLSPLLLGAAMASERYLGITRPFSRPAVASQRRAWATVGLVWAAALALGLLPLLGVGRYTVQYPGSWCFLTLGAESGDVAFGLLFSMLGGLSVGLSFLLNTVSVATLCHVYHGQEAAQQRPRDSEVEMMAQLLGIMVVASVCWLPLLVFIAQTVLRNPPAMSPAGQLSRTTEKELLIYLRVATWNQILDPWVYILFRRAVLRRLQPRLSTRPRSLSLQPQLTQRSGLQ
Assay: Binding affinity of Thromboxane A2 (TXA2) receptor using [3H]-SQ 29,548 radioligand in washed human platelets

Row | Kd [nM] | Compound
1 | 138 | CC1(C)C2CC[C@H](Cc3cccc4ccc(=O)oc34)C1C2 (some centres not stated)
2 | 424 | CC1(C)C2CC[C@@H](Cc3cccc4ccc(=O)oc34)C1C2 (some centres not stated)
